Source: patent US20110144565A1, “COMBINATION OF A TILIROSIDE AND A PEPTIDE” (LABORATOIRES CLARINS, priority 2008, published 2011)

Tested on: collagen type I synthesis in normal adult human fibroblasts
Assay: Immunolocalization of collagen type I in normal adult human fibroblasts (immunofluorescence, image analysis)
Assay type: cell-based
Settings: 2×10^−3% palmitoyl lysine-valine-5 diaminohydroxybutyrate (P1), 72 hours, Anova
Method: The fibroblasts were seeded into 6-well plates with a glass coverslip in a proportion of 70 000 cells per dish, in MEM (Minimum Essential Medium). […] Each cell layer was then rinsed and fixed with methanol (−20° C.) before visualizing the collagen type I by immunofluorescence. […] The incubation time between each antibody is 1 hour. The cell nuclei are visualized by means of Dapi labeling. The coverslips are mounted on glass slides and then observed under a fluorescence microscope (Nikon Eclipse 50i). Photographs are taken of several fields of the cell population. The TRITC fluorescence images indicate the regions of localization of collagen type I. The DAPI fluorescence images indicate the cell nuclei and therefore the number of cells per field. The photographic images are analyzed using the Lucia image analysis software. The intensity of collagen labeling was observed on 14 and 15 photographic images according to the conditions. This fluorescence intensity is related to the number of cells per image. The differences in mean between the populations were studied by analysis of variance (Anova). This method uses measurements of variance in order to determine the significant or nonsignificant nature of the differences in mean measured on the populations.

Question: For “palmitoyl lysine-valine-5 diaminohydroxybutyrate”, which “collagen type I labeling (fluorescence intensity related to the number of cells) compared with the nontreated control” value is on record?
Answer: The value was “statistically significant (p<0.0001) increase in collagen”.
